Target: T1, Na(+)/dicarboxylate cotransporter 3 (Homo sapiens, UniProt Q8WWT9)
T1 sequence (Q8WWT9 whole entry): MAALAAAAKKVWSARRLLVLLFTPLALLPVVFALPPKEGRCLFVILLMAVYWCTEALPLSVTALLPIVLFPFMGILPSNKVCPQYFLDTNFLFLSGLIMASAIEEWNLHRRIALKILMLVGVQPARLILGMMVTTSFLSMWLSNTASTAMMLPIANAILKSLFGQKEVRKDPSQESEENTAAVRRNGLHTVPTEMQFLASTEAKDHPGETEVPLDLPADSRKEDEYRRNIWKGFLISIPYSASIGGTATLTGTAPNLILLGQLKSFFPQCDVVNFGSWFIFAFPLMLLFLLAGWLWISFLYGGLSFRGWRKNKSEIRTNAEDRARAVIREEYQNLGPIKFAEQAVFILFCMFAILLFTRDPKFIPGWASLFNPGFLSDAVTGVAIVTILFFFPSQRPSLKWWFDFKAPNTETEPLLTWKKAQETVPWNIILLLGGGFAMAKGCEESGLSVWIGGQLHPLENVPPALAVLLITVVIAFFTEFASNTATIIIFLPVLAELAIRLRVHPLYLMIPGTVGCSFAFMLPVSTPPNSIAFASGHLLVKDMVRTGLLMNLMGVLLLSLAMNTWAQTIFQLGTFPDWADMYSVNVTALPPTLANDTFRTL
Assay: Substrate uptake by the Na(+)/Dicarboxylate Cotransporter 3 (NADC3, SLC13A3) as assessed by the fluorescent FLIPR membrane potential dye in HEK-293 JumpIN-SLC13A3 cells (PubChem AID: 1794820)
Format: functional, cell-based, HEK293

SMILES	EC50 [µM]
O=C(O)CCC(=O)C(=O)O [ALPHA-KETOGLUTARIC ACID]	54
O=C(O)CCC(=O)O [SUCCINIC ACID]	107

— ChEMBL document CHEMBL5209571, “Membrane potential based assay for SLC13A3 using HEK-293 SLC13A3 OE cells” (2022)
